Measurements from patent US10392368B2, “Pyrazolo and triazolo bicyclic compounds as JAK kinase inhibitors” (THERAVANCE BIOPHARMA R&D IP, LLC, priority 2017, dated 2019).
Read-outs that look alike come from different tables or passages of the source.

Assays:
[1] = molecular target: T1, JAK3 (Homo sapiens, UniProt P52333); assay: Biochemical JAK3 kinase assay (LanthaScreen); design: GST; purchased Life Technologies; conditions: for Ki: read-out: JAK 3 (pKi) (converted)
T1 sequence (P52333 1-1124): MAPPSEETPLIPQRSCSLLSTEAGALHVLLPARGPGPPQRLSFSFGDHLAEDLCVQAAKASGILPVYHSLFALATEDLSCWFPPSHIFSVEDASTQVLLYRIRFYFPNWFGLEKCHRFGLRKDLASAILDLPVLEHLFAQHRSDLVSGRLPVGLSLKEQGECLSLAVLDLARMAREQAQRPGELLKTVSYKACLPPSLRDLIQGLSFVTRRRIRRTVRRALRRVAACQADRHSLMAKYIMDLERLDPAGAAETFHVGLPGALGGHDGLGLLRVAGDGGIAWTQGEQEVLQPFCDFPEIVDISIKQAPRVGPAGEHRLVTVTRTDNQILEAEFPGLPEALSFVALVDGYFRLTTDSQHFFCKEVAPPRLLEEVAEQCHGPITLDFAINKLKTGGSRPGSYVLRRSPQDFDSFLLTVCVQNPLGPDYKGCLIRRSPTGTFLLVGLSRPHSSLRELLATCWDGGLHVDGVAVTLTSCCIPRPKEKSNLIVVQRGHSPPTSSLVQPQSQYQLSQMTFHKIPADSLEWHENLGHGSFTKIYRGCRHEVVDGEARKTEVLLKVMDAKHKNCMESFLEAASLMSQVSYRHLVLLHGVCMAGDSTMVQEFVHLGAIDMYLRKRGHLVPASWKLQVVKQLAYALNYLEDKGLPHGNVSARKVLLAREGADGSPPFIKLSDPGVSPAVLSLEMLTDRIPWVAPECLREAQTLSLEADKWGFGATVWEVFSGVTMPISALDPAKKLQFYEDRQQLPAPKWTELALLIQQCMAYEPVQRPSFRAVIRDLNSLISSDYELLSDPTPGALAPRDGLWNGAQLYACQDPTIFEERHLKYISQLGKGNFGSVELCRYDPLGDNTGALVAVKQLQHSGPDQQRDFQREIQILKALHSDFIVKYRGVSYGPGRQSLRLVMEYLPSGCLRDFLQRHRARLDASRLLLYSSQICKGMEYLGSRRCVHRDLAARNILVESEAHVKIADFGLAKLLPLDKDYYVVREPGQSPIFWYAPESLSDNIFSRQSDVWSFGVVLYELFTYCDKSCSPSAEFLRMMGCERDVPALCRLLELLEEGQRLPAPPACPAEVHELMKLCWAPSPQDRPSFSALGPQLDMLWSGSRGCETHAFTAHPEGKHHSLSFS
Procedure: (§1) A panel of four LanthaScreen JAK biochemical assays (JAK1, 2, 3 and Tyk2) were carried in a common kinase reaction buffer (50 mM HEPES, pH 7.5, 0.01% Brij-35, 10 mM MgCl2, and 1 mM EGTA). Recombinant GST-tagged JAK enzymes and a GFP-tagged STAT1 peptide substrate were obtained from Life Technologies.
(§2) Serially or discretely diluted compounds were pre-incubated with each of the four JAK enzymes and the substrate in white 384-well microplates (Corning) at ambient temperature for 1 h. ATP was subsequently added to initiate the kinase reactions in 10 μL total volume, with 1% DMSO. […] Kinase reactions were allowed to proceed for 1 hour at ambient temperature before a 10 μL preparation of EDTA (10 mM final concentration) and Tb-anti-pSTAT1 (pTyr701) antibody (Life Technologies, 2 nM final concentration) in TR-FRET dilution buffer (Life Technologies) was added. The plates were allowed to incubate at ambient temperature for 1 h before being read on the EnVision reader (Perkin Elmer). Emission ratio signals (520 nm/495 nm) were recorded and utilized to calculate the percent inhibition values based on DMSO and background controls.
(§3) For dose-response analysis, percent inhibition data were plotted vs. compound concentrations, and IC50 values were determined from a 4-parameter robust fit model with the Prism software (GraphPad Software). Results were expressed as pIC50 (negative logarithm of IC50) and subsequently converted to pKi (negative logarithm of dissociation constant, Ki) using the Cheng-Prusoff equation.

[2] = tested on: IL-2 stimulated pSTAT5 in Tall-1 T cells; assay: Cellular JAK3 potency assay: inhibition of IL-2 stimulated pSTAT5 in Tall-1 T cells; assay type: cell-based, human; conditions: for IC50: Homo sapiens, read-out: Tall-1 (pIC50) (converted)
Procedure: The potency of test compounds for inhibition of interleukin-2 (IL-2) stimulated STAT5 phosphorylation was measured in the Tall-1 human T cell line (DSMZ) using AlphaLisa. Because IL-2 signals through JAK3, this assay provides a measure of JAK3 cellular potency.
Compounds were serially diluted in DMSO and dispensed acoustically to empty wells. Assay media (phenol red-free DMEM (Life Technologies) supplemented with 10% FBS (ATCC)) was dispensed (4 μL/well) and plates shaken at 900 rpm for 10 mins. Cells were seeded at 45,000 cells/well in assay media (4 μL/well), and incubated at 37° C., 5% CO2 for 1 hour, followed by the addition of IL-2 (R&D Systems; final concentration 300 ng/ml) in pre-warmed assay media (4 μL) for 30 minutes. After cytokine stimulation, cells were lysed with 6 ul of 3× AlphaLisa Lysis Buffer (PerkinElmer) containing 1× PhosStop and Complete tablets (Roche). The lysate was shaken at 900 rpm for 10 minutes at room temperature (RT). Phosphorylated STAT5 was measured via the pSTAT5 AlphaLisa kit (PerkinElmer). Freshly prepared acceptor bead mixture was dispensed onto lysate (5 μL) under green filtered <100 lux light. Plates were shaken at 900 rpm for 2 mins, briefly spun down, and incubated for 2 hrs at RT in the dark. Donor beads were dispensed (5 μL) under green filtered <100 lux light. Plates were shaken at 900 rpm for 2 minutes, briefly spun down, and incubated overnight at RT in the dark.
To determine the inhibitory potency of test compounds in response to IL-2, the average emission intensity of beads bound to pSTAT5 was measured in a human T cell line. IC50 values were determined from analysis of the inhibition curves of signal intensity versus compound concentration. Data are expressed as pIC50 (negative decadic logarithm IC50) values (mean±standard deviation).

[3] = molecular target: T2, JAK1 (Homo sapiens, UniProt P23458); assay: Biochemical JAK1 kinase assay (LanthaScreen); conditions: for Ki: read-out: JAK 1 (pKi) (converted)
T2 construct: GST; purchased Life Technologies
T2 sequence (P23458 whole entry): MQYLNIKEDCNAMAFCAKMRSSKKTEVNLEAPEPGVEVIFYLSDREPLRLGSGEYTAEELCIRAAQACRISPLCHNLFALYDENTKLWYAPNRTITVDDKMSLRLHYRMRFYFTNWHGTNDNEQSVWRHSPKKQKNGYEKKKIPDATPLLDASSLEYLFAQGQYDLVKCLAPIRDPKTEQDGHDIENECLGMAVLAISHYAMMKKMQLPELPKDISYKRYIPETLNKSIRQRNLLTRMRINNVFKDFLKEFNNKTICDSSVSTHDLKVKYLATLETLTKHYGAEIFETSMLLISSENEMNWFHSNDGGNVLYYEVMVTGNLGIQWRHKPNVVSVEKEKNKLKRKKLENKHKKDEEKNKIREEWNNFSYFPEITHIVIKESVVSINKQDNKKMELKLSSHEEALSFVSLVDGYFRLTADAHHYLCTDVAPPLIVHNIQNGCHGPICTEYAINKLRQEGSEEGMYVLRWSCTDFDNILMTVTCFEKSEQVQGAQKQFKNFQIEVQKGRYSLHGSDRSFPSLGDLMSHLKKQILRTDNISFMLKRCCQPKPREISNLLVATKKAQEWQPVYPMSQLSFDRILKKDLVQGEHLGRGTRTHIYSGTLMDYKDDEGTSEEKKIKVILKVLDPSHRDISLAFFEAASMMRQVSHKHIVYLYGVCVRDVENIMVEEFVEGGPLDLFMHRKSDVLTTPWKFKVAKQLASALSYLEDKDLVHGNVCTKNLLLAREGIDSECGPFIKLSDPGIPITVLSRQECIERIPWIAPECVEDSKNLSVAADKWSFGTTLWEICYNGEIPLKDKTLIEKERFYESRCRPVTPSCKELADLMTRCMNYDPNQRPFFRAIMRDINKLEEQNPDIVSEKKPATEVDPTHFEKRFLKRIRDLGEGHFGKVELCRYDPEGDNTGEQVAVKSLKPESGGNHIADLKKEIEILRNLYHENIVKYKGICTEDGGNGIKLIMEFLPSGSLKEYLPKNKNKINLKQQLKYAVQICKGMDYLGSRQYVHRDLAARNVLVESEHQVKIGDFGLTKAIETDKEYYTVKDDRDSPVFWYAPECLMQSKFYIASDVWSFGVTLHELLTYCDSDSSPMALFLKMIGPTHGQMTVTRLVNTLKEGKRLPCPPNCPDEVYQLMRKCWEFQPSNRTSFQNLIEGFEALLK
Procedure: as §1, §2, §3

[4] = selectivity: difference of pKi JAK3 and pKi JAK1
[5] = IL-2 stimulated pSTAT5 in Tall-1 T cells
[6] = selectivity JAK3 over JAK1, difference of pKi
[7] = IL-2 stimulated pSTAT5, Tall-1 T cells
[8] = TALL-1, IL-2 stimulated pSTAT5 in Tall-1 T cells
[9] = TALL-1, IL-2 stimulated pSTAT5, Tall-1 T cells

C=CC(=O)N1CC(COc2nc(-c3ccc(O)cc3)cc3[nH]ncc23)C1 [Compound 3-29]
JAK 3 (pKi) [1]: B (a pKi value between 9 and 10 (Ki between 1 nM and 0.1 nM)) | JAK3 (pKi)-JAK1 (pKi) [1, 4]: A (a value of 3 or above) | Tall-1 (pIC50) [2, 5]: A (a pIC50 value≥7.5 (IC50≤32 nM)) | JAK 1 (pKi) [3]: E (a pKi value of 7 or below (Ki of 100 nM or above))

C=CC(=O)N1CCC(COc2cc(-c3ccc(O)c(F)c3)cc3[nH]ncc23)CC1 [Compound 14-5]
JAK 3 (pKi) [1]: B (a pKi value between 9 and 10 (Ki between 1 nM and 0.1 nM)) | JAK3 (pKi)-JAK1 (pKi) [1, 6]: B (a value of 2.3 to 3) | Tall-1 (pIC50) [2, 7]: A (a pIC50 value≥7.5 (IC50≤32 nM)) | JAK 1 (pKi) [3]: D (a pKi value between 7 and 8 (Ki between 100 nM and 10 nM))

CN(C)C/C=C/C(=O)N1CCC(COc2cc(-c3ccc(O)c(F)c3)cc3[nH]ncc23)CC1 [Compound 14-4]
JAK 3 (pKi) [1]: B (a pKi value between 9 and 10 (Ki between 1 nM and 0.1 nM)) | JAK3 (pKi)-JAK1 (pKi) [1, 6]: B (a value of 2.3 to 3) | Tall-1 (pIC50) [2, 7]: B (a pIC50 value between 6.7 (included) and 7.5 (IC50 between 200 nM and 32 nM)) | JAK 1 (pKi) [3]: D (a pKi value between 7 and 8 (Ki between 100 nM and 10 nM))

CN(C)CC=CC(=O)N1C2CCC1CC(Oc1cc(-c3ccc(O)c(Cl)c3)cc3[nH]ncc13)C2 (centres unmarked) [Compound 10-3]
JAK 3 (pKi) [1]: B (a pKi value between 9 and 10 (Ki between 1 nM and 0.1 nM)) | JAK3 (pKi)-JAK1 (pKi) [1, 6]: B (a value of 2.3 to 3) | Tall-1 (pIC50) [2, 7]: B (a pIC50 value between 6.7 (included) and 7.5 (IC50 between 200 nM and 32 nM)) | JAK 1 (pKi) [3]: D (a pKi value between 7 and 8 (Ki between 100 nM and 10 nM))

C=CC(=O)N1CC(C(C)(C)Oc2cc(-c3ccc(O)cc3)cc3[nH]ncc23)C1 [Compound 3-25]
JAK 3 (pKi) [1]: C (a pKi value between 8 and 9 (Ki between 10 nM and 1 nM)) | JAK3 (pKi)-JAK1 (pKi) [1, 4]: B (a value of 2.3 to 3) | Tall-1 (pIC50) [2, 5]: B (a pIC50 value between 6.7 (included) and 7.5 (IC50 between 200 nM and 32 nM)) | JAK 1 (pKi) [3]: E (a pKi value of 7 or below (Ki of 100 nM or above))

C=C(CN(C)C)C(=O)N1CC[C@H](Oc2cc(-c3ccc(O)cc3)cc3[nH]ncc23)C1 [Compound 16, (S)-2-((dimethylamino)methyl)-1-(3-((6-(4-hydroxyphenyl)-1H-indazol-4-yl)oxy)pyrrolidin-1-yl)prop-2-en-1-one]
Ki [1]: 0.1 to 1 nM | JAK3 (pKi)-JAK1 (pKi) [1, 4]: A (a value of 3 or above) | IC50 [2, 8]: 31.6 to 200 nM | Ki [3]: > 100 nM

C=CC(=O)N1CC[C@H](Oc2nc(-c3ccc(O)c(Cl)c3)nc3[nH]nc(C)c23)C1 [Compound 1-37]
Ki [1]: 0.1 to 1 nM | JAK3 (pKi)-JAK1 (pKi) [1, 4]: A (a value of 3 or above) | IC50 [2, 8]: 200 to 1000 nM | Ki [3]: > 100 nM

CN(C)C/C=C/C(=O)N1CC[C@H](COc2cc(-c3ccc(O)cc3)cc3[nH]ncc23)C1 [Compound 2-1]
JAK 3 (pKi) [1]: A (a pKi value≥10 (Ki≤0.1 nM)) | JAK3 (pKi)-JAK1 (pKi) [1, 4]: B (a value of 2.3 to 3) | Tall-1 (pIC50) [2, 5]: C (a pIC50 value between 6 and 6.7 (IC50 between 1 μM and 200 nM)) | JAK 1 (pKi) [3]: D (a pKi value between 7 and 8 (Ki between 100 nM and 10 nM))

C=CC(=O)N1CC[C@H](COc2nc(-c3ccc(O)cc3)nc3[nH]ncc23)C1 [Compound 2-7]
JAK 3 (pKi) [1]: B (a pKi value between 9 and 10 (Ki between 1 nM and 0.1 nM)) | JAK3 (pKi)-JAK1 (pKi) [1, 4]: A (a value of 3 or above) | Tall-1 (pIC50) [2, 5]: B (a pIC50 value between 6.7 (included) and 7.5 (IC50 between 200 nM and 32 nM)) | JAK 1 (pKi) [3]: E (a pKi value of 7 or below (Ki of 100 nM or above))

CN(C)C/C=C/C(=O)N1CC(Oc2cc(-c3ccc(O)cc3)cc3[nH]ncc23)(C(F)(F)F)C1 [Compound 5-25]
JAK 3 (pKi) [1]: B (a pKi value between 9 and 10 (Ki between 1 nM and 0.1 nM)) | JAK3 (pKi)-JAK1 (pKi) [1, 6]: A (a value of 3 or above) | Tall-1 (pIC50) [2, 7]: A (a pIC50 value≥7.5 (IC50≤32 nM)) | JAK 1 (pKi) [3]: E (a pKi value of 7 or below (Ki of 100 nM or above))

CN(C)C/C=C/C(=O)N1CC(C)(Oc2cc(-c3ccc(O)cc3)cc3[nH]ncc23)C1 [Compound 5-11]
JAK 3 (pKi) [1]: B (a pKi value between 9 and 10 (Ki between 1 nM and 0.1 nM)) | JAK3 (pKi)-JAK1 (pKi) [1, 4]: A (a value of 3 or above) | Tall-1 (pIC50) [2, 5]: B (a pIC50 value between 6.7 (included) and 7.5 (IC50 between 200 nM and 32 nM)) | JAK 1 (pKi) [3]: E (a pKi value of 7 or below (Ki of 100 nM or above))

CN(C)C/C=C/C(=O)N1CC[C@@H](COc2cc(-c3ccc(O)cc3)cc3[nH]ncc23)C1 [Compound 12-19]
Ki [1]: < 0.1 nM | JAK3 (pKi)-JAK1 (pKi) [1, 6]: A (a value of 3 or above) | IC50 [2, 9]: 200 to 1000 nM | Ki [3]: > 100 nM

C=CC(=O)N1CC[C@H](Oc2cc(-c3ccc(O)cc3)cc3[nH]nc(SC)c23)C1 [Compound 1-39]
Ki [1]: 0.1 to 1 nM | JAK3 (pKi)-JAK1 (pKi) [1, 4]: A (a value of 3 or above) | IC50 [2, 8]: 31.6 to 200 nM | Ki [3]: > 100 nM

C=CC(=O)N1CCC(Oc2nc(-c3ccc(O)c(F)c3)nc3[nH]ncc23)CC1 [Compound 6-23]
Ki [1]: 0.1 to 1 nM | JAK3 (pKi)-JAK1 (pKi) [1, 6]: A (a value of 3 or above) | IC50 [2, 9]: 200 to 1000 nM | Ki [3]: > 100 nM
